Reference: patent publication US10662204B2 (PFIZER INC., priority 2018, dated 2020)

What was measured:
KRAS G12C = KRAS G12C (Homo sapiens, UniProt P01116, G12C); experiment: Cell Activity Assay: accumulation of GDP-bound KRAS G12C in MIAPaCa-2 cells (Raf-1 RBD capture, MSD readout); format: cell-based; design: endogenous in cells; host or cells: MIAPaCa-2; details: 6 hours, assay limit is 30.00
Procedure, shortened: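 IC50 came from a 4-parameter fit of Ras signal normalized between DMSO and full-inhibition controls. Readout: lysate GTP-Ras bound to immobilized Raf-1 RBD, quantified with pan-Ras antibody and MSD electrochemiluminescence. Lysates derived from MIAPaCa-2 cells treated 6 h with serially diluted compound, 0.3% DMSO.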

[1] = biological target: T1, GDP-loaded KRAS (1-169) G12C, C51S, C80L, C118S (Homo sapiens, UniProt P01116, C118S/C51S/C80L/G12C); experiment: Mass Spectrometry Reactivity Assay (MSRA): covalent adduct of compound and KRAS G12C, Percent Modification; format: binding; details: for MSRA (% modification) 5.0 μM 0.017 hr / MSRA (% modification) 5.0 μM 0.25 hr: 5.0 μM compound; for MSRA (% modification) 10 μM 0.50 hr / MSRA (% modification) 10 μM 0.25 hr: 10 μM compound
T1 construct: GDP-loaded KRAS (1-169) G12C, C51S, C80L, C118S
Procedure, shortened: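 Covalent labelling is measured by intact mass: deconvoluted modified and unmodified peak intensities yield percent modification. Compound, usually 5 μM or 10 μM final, reacts at room temperature with 5 μM GDP-bound KRAS G12C (1-169, C51S/C80L/C118S) in Hepes pH 7.5/NaCl/glycerol, sampled at 1, 15, 30, 60 min.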

Row | Compound | IC50 (KRAS G12C) [µM] | MSRA (% modification) 5.0 μM 0.017 hr [1] [%] | MSRA (% modification) 10 μM 0.50 hr [1] [%] | MSRA (% modification) 10 μM 0.25 hr [1] [%] | MSRA (% modification) 5.0 μM 0.25 hr [1] [%]
1 | C=CC(=O)N1CCN(c2nc(O[C@@H]3CN(C(C)(C)C)C[C@H]3OC)nc3c(Oc4c(Cl)c(F)cc5[nH]ncc45)nccc23)CC1 [Example 52I, 1-[4-(2-{[(3R,4R)-1-tert-butyl-4-methoxy-pyrrolidin-3-yl]oxy}-8-[(5-chloro-6-fluoro-1H-indazol-4-yl)oxy]pyrido [3,4-d]pyrimidin-4-yl)piperazin-1-yl]prop-2-en-1-one] | 0.023 | 81 | – | – | –
2 | C=CC(=O)N1CCN(c2ncnc3c(Oc4c(Cl)ccc5[nH]ncc45)cccc23)C[C@@H]1C [Example 07C, 1-[(2S)-4-{8-[(5-chloro-1H-indazol-4-yl)oxy]quinazolin-4-yl}-2-methylpiperazin-1-yl]prop-2-en-1-one] | 5.67 | – | 15 | – | –
3 | C=CC(=O)N1CCN(c2nc(OC[C@H]3CCCN3C)nc3c(Oc4c(C)ccc5[nH]ncc45)nccc23)CC1 [Example 09B, 1-[4-(8-[(5-methyl-1H-indazol-4-yl)oxy]-2-{[(2R)-1-methylpyrrolidin-2-yl]methoxy}pyrido[3,4-d]pyrimidin-4-yl)piperazin-1-yl]prop-2-en-1-one] | 3.1 | – | – | 43 | –
4 | C=CC(=O)N1CCN(c2nc(O[C@@H]3CN(CCO)C[C@H]3OC)nc3c(Oc4c(Cl)c(F)cc5[nH]ncc45)nccc23)CC1 [Example 46I, 1-[4-(8-[(5-chloro-6-fluoro-1H-indazol-4-yl)oxy]-2-{[(3R,4R)-1-(2-hydroxy-ethyl)-4-methoxy-pyrrolidin-3-yl]oxy}pyrido [3,4-d]pyrimidin-4-yl)piperazin-1-yl]prop-2-en-1-one] | 0.285 | 70 | – | – | –
5 | C=CC(=O)N1CCN(c2ncnc3c(Oc4c(C)c(Cl)cc5[nH]ncc45)nccc23)CC1 [Example 14A, 1-(4-{8-[(6-chloro-5-methyl-1H-indazol-4-yl)oxy]pyrido[3,4-d]pyrimidin-4-yl}piperazin-1-yl)prop-2-en-1-one] | 0.545 | – | 67 | – | 46
6 | C=CC(=O)N1CCN(c2nc(N(C)CCC(=O)N(C)C)nc3c(Oc4c(C)ccc5[nH]ncc45)cccc23)CC1 [Example 05F, N^3-{4-(4-acryloylpiperazin-1-yl)-8-[(5-methyl-1H-indazol-4-yl)oxy]quinazolin-2-yl}-N,N,N^3-trimethyl-β-alaninamide] | 28.5 | – | 22 | – | –
7 | C=CC(=O)N1CCN(c2ncnc3c(Oc4c(Cl)c(F)cc5[nH]ncc45)nccc23)C[C@H]1C [Example 25A, 1-[(2R)-4-{8-[(5-chloro-6-fluoro-1H-indazol-4-yl)oxy]pyrido[3,4-d]pyrimidin-4-yl}-2-methylpiperazin-1-yl]prop-2-en-1-one] | 8.89 | – | 17 | – | –
8 | C=CC(=O)N1CCN(c2nc(NCCC(=O)NC)nc3c(Oc4c(C)ccc5[nH]ncc45)cccc23)CC1 [Example 13F, N^3-{4-(4-acryloylpiperazin-1-yl)-8-[(5-methyl-1H-indazol-4-yl)oxy]quinazolin-2-yl}-N-methyl-β-alaninamide] | 17 | – | 26 | – | –
9 | C=CC(=O)N1CCN(c2ncnc3c(Oc4c(C)c(Cl)cc5[nH]ncc45)nc(C#N)cc23)C[C@@H]1C [Example 33A, 4-[(3S)-4-acryloyl-3-methylpiperazin-1-yl]-8-[(6-chloro-5-methyl-1H-indazol-4-yl)oxy]pyrido[3,4-d]pyrimidine-6-carbonitrile] | > 30 | – | 34 | – | –
10 | C=CC(=O)N1CCN(c2nc(OC[C@@H]3C[C@H](F)CN3C)nc3c(Oc4c(Cl)c(F)cc5[nH]ncc45)nccc23)CC1 [Example 11H, 1-[4-(8-[(5-chloro-6-fluoro-1H-indazol-4-yl)oxy]-2-{[(2S,4S)-4-fluoro-1-methylpyrrolidin-2-yl]methoxy}pyrido[3,4-d]pyrimidin-4-yl)piperazin-1-yl]prop-2-en-1-one] | 0.237 | – | – | 80 | –
11 | C=CC(=O)N1CCN(c2nc(O[C@@H]3CN(C)C[C@H]3OC)nc3c(Oc4c(Cl)c(F)cc5[nH]ncc45)nccc23)[C@H](C)C1 [Example 34I, 1-[(3R)-4-(8-[(5-chloro-6-fluoro-1H-indazol-4-yl)oxy]-2-{[(3R,4R)-4-methoxy-1-methyl-pyrrolidin-3-yl]oxy}pyrido [3,4-d]pyrimidin-4-yl)-3-methyl-piperazin-1-yl]prop-2-en-1-one] | 0.935 | 52 | – | – | –
12 | C=CC(=O)N1CCN(c2nc(O[C@@H]3CN(C)C[C@H]3C3CC3)nc3c(Oc4c(Cl)c(F)cc5[nH]ncc45)nccc23)CC1 (racemic) [Example 39I, rac-1-[4-(8-[(5-chloro-6-fluoro-1H-indazol-4-yl)oxy]-2-{[(3S,4R)-4-cyclo-propyl-1-methyl-pyrrolidin-3-yl]oxy}pyrido [3,4-d]pyrimidin-4-yl)piperazin-1-yl]prop-2-en-1-one] | 0.083 | 31 | – | – | –
13 | C=CC(=O)N1CCN(c2nc(N3CC(CN(C)C)C3)nc3c(Oc4c(C)ccc5[nH]ncc45)cccc23)CC1 [Example 10E, 1-[4-(2-{3-[(dimethylamino)methyl]azetidin-1-yl}-8-[(5-methyl-1H-indazol-4-yl)oxy]quinazolin-4-yl)piperazin-1-yl]prop-2-en-1-one] | 2.32 | – | 21 | – | –
14 | C=CC(=O)N1CCN(c2ncnc3c(Oc4c(Cl)c(F)cc5[nH]ncc45)nccc23)C[C@@H]1C [Example 26A, 1-[(2S)-4-{8-[(5-chloro-6-fluoro-1H-indazol-4-yl)oxy]pyrido[3,4-d]pyrimidin-4-yl}-2-methylpiperazin-1-yl]prop-2-en-1-one] | 27.6 | – | 14 | – | –
15 | C=CC(=O)N1CCN(c2nc(OCCc3ncc[nH]3)nc3c(Oc4c(C)ccc5[nH]ncc45)cccc23)CC1 [Example 09F, 1-(4-{2-[2-(1H-imidazol-2-yl)ethoxy]-8-[(5-methyl-1H-indazol-4-yl)oxy]quinazolin-4-yl}piperazin-1-yl)prop-2-en-1-one] | 3 | – | 75 | 64 | –
16 | C=CC(=O)N1CCN(c2ncnc3c(Oc4c(C)ccc5[nH]ncc45)cc(C#N)cc23)CC1 [Example 14C] | 27.8 | – | 20 | – | –
17 | C=CC(=O)N1CCN(c2nc(N3CC(N(C)C)C3)nc3c(Oc4c(Cl)c(C)cc5[nH]ncc45)cccc23)CC1 [Example 14E, 1-(4-{8-[(5-chloro-6-methyl-1H-indazol-4-yl)oxy]-2-[3-(dimethylamino)azetidin-1-yl]quinazolin-4-yl}piperazin-1-yl)prop-2-en-1-one] | 1.01 | – | 65 | – | –
18 | C=CC(=O)N1CCN(c2nc(OC[C@@]3(F)CCCN(C)C3)nc3c(Oc4c(Cl)c(F)cc5[nH]ncc45)nccc23)CC1 [Example 15I, 1-[4-(8-[(5-chloro-6-fluoro-1H-indazol-4-yl)oxy]-2-{[(3R)-3-fluoro-1-methyl-piperidin-3-yl]methoxy}pyrido [3,4-d]pyrimidin-4-yl)piperazin-1-yl]prop-2-en-1-one] | 0.126 | – | – | – | 81
19 | C#CCCN1C[C@@H](OC)[C@H](Oc2nc(N3CCN(C(=O)C=C)CC3)c3ccnc(Oc4c(Cl)c(F)cc5[nH]ncc45)c3n2)C1 [Example 44I, 1-[4-(2-{[(3R,4R)-1-(but-3-yn-1-yl)-4-methoxy-pyrrolidin-3-yl]oxy}-8-[(5-chloro-6-fluoro-1H-indazol-4-yl)oxy]pyrido [3,4-d]pyrimidin-4-yl)piperazin-1-yl]prop-2-en-1-one] | 0.032 | 56 | – | – | –
20 | C=CC(=O)N1CCN(c2ncnc3c(Oc4c(Cl)c(F)cc5[nH]ncc45)nc(Cl)cc23)[C@@H](CO)C1 [Example 38A, 1-[(3R)-4-{6-chloro-8-[(5-chloro-6-fluoro-1H-indazol-4-yl)oxy]pyrido[3,4-d]pyrimidin-4-yl}-3-(hydroxymethyl)piperazin-1-yl]prop-2-en-1-one] | 0.537 | – | – | 56 | –
21 | C=CC(=O)N1CCN(c2ncnc3c(Oc4c(C)c(Cl)cc5[nH]ncc45)nc(C#N)cc23)C[C@H]1C [Example 27A, 4-[(3R)-4-acryloyl-3-methylpiperazin-1-yl]-8-[(6-chloro-5-methyl-1H-indazol-4-yl)oxy]pyrido[3,4-d]pyrimidine-6-carbonitrile] | 13.3 | – | 30 | – | –
22 | [2H]C([2H])([2H])N1C[C@@H](OC)[C@H](Oc2nc(N3CCN(C(=O)C=C)CC3)c3ccnc(Oc4c(Cl)c(F)cc5[nH]ncc45)c3n2)C1 [Example 56I, 1-[4-(8-[(5-chloro-6-fluoro-1H-indazol-4-yl)oxy]-2-{[(3R,4R)-4-methoxy-1-(^2H3)methyl-pyrrolidin-3-yl]oxy}pyrido [3,4-d]pyrimidin-4-yl)piperazin-1-yl]prop-2-en-1-one] | 0.04 | 81 | – | – | –
23 | C=CC(=O)N1CCN(c2ncnc3c(Oc4c(Cl)ccc5[nH]ncc45)nc(C)cc23)CC1 [Example 05A, 1-(4-{8-[(5-chloro-1H-indazol-4-yl)oxy]-6-methylpyrido[3,4-d]pyrimidin-4-yl}piperazin-1-yl)prop-2-en-1-one] | 8.41 | – | 12 | – | –
